Measurements from publication PMC3722296 (PLoS ONE, 2013).
Converted amounts (≈) assume the structure as drawn.

Key:
[1] = tested on: S. aureus metallo-protease aureolysin; settings: cited from earlier work
From the text: Staphylococcus aureus is the most frequently isolated pathogen in Gram-positive sepsis, often involved in blood clotting disorders and destruction of endocardial tissue. S. aureus has developed several mechanisms to avoid immune response including resistance to AMPs, [13] impairment of phagocyte recruitment, [14] escape from neutrophil extracellular traps, [15] interference with complement, [16] neutrophil lysis, resistance to oxidative burst and non-specific binding and degradation of immunoglobulins. The AMPs evasion mechanisms deployed by S. aureus include prote ...

S. aureus S1 (MRSA) = format: cell-based, Staphylococcus aureus; settings: MIC = 100% growth inhibition; MHB pH 7.3, 5×10^5 CFU/mL, 24 h 37°C, A620 nm; mean of triplicate (n = 3)
Experimental: (§1) S1 was isolated from the blood of a patient and S2 was isolated from the sputum of a neonate. After isolation and identification, S. aureus strains were assessed for their susceptibility to various antibiotics, using the agar disc diffusion method. S1 was found Methicillin resistant (MRSA) and is also resistant to Amoxicillin, Oxacillin, Amikacin, Tobramycin, Fluoroquinolones, Erythromycin and Clindamycin. However, it was susceptible to Gentamicin, Synercid, Co-trimoxazole, Rifampicin, Fusidic acid, Vancomycin, Teicoplanin and Linezolid.
(§2) Different S. aureus strains described above were first pre-cultured aerobically at 37°C for 20 h in a Mueller-Hinton-Broth (MHB) medium, pH 7.3 (Difco Laboratories, Detroit, MI). Bacteria were suspended at absorbance of 0.001 at 620 nm in the MHB medium. […] Ten µl final volumes (10–200 µg/mL) of synthetic peptides (LL-37, bCAT, hCAT and bCTL) were incubated in microtitration plates with 90 µl of a mid-logarithmic phase culture of bacteria, with a starting absorbance of 0.001 at 620 nm. In the initial inoculi, bacteria were quantified by the agar plate spreading method which was 5×10^5 colony forming units (CFU)/mL. Tetracycline (10 mg/L) and Cefotaxime (0.1 mg/L) were used as positive controls. Microbial growth was assessed by the increase of absorbance after 24 h incubation at 37°C., [29] The A620 nm value of control cultures growing in the absence of peptide and antibiotics was defined as 100% growth. A620 nm zero with the antibiotics (Tetracycline and Cefotaxime) was taken as 100% inhibition. Absence of bacterial growth was verified by agar plate spreading. Each assay was performed in triplicates.
(§3) The MIC values (µg/mL) are reported as means of three independent experiments. To determine significance, between different peptides (rows) and bacterial strains (columns), one way ANOVA was used. Overall significance and correlation was evaluated by 4×4 factorial ANOVA for independent samples. Significance was accepted at p≤0.05.

S. aureus S2 (MSSA) = format: cell-based, Staphylococcus aureus; settings: MIC = 100% growth inhibition; MHB pH 7.3, 5×10^5 CFU/mL, 24 h 37°C, A620 nm; mean of triplicate (n = 3)
Experimental: as §1, §2, §3

S. aureus ATCC25923 = format: cell-based, Staphylococcus aureus; settings: MIC = 100% growth inhibition; MHB pH 7.3, 5×10^5 CFU/mL, 24 h 37°C, A620 nm; mean of triplicate (n = 3)
Experimental: as §2, §3

S. aureus ATCC49775 = format: cell-based, Staphylococcus aureus; settings: MIC = 100% growth inhibition; MHB pH 7.3, 5×10^5 CFU/mL, 24 h 37°C, A620 nm; mean of triplicate (n = 3)
Experimental: as §2, §3

CC[C@H](C)[C@H](NC(=O)[C@H](CCCCN)NC(=O)[C@H](CCC(=O)O)NC(=O)[C@H](CCCCN)NC(=O)[C@H](CO)NC(=O)[C@H](CCCCN)NC(=O)[C@H](CCCNC(=N)N)NC(=O)[C@H](Cc1ccccc1)NC(=O)[C@H](Cc1ccccc1)NC(=O)[C@H](CC(=O)O)NC(=O)CNC(=O)[C@H](CC(C)C)NC(=O)[C@@H](N)CC(C)C)C(=O)NCC(=O)N[C@@H](CCCCN)C(=O)N[C@@H](CCC(=O)O)C(=O)N[C@@H](Cc1ccccc1)C(=O)N[C@@H](CCCCN)C(=O)N[C@@H](CCCNC(=N)N)C(=O)N[C@H](C(=O)N[C@H](C(=O)N[C@@H](CCC(N)=O)C(=O)N[C@@H](CCCNC(=N)N)C(=O)N[C@H](C(=O)N[C@@H](CCCCN)C(=O)N[C@@H](CC(=O)O)C(=O)N[C@@H](Cc1ccccc1)C(=O)N[C@@H](CC(C)C)C(=O)N[C@@H](CCCNC(=N)N)C(=O)N[C@@H](CC(N)=O)C(=O)N[C@@H](CC(C)C)C(=O)N[C@H](C(=O)N1CCC[C@H]1C(=O)N[C@@H](CCCNC(=N)N)C(=O)N[C@H](C(=O)N[C@@H](CCC(=O)O)C(=O)N[C@@H](CO)C(=O)O)[C@@H](C)O)C(C)C)[C@@H](C)CC)C(C)C)[C@@H](C)CC [LL-37, reference compound]
cleavage by aureolysin [1]: cleave and inactivate | MIC (S. aureus S1 (MRSA)): 30 µg/mL (≈ 6.68 µM) | MIC (S. aureus S2 (MSSA)): 35 µg/mL (≈ 7.79 µM) | MIC (S. aureus ATCC25923): 30 µg/mL (≈ 6.68 µM) | MIC (S. aureus ATCC49775): 30 µg/mL (≈ 6.68 µM)
